Earlier results, collected in patent publication US5786344A, “Camptothecin drug combinations and methods with reduced side effects” (priority 1995, dated 1998).
Where a name gives a salt, the structure may show the parent alone. Read-outs that look alike come from different tables or passages of the source.

Legend:
p-glycoprotein = details: cited from earlier work
[1] = cited from earlier work

Compound: C=C1[C@@H](C)[C@H]2[C@H](Cc3ccccc3)NC(=O)[C@]23OC(=O)/C=C/[C@H](O)CCC[C@@H](C)C/C=C/[C@H]3[C@@H]1O [cytochalasin B]
- inhibition of / interaction with p-glycoprotein (p-glycoprotein): inhibiting p-glycoprotein

Compound: CC(=O)O[C@@]12CO[C@@H]1C[C@H](O)[C@@]1(C)C(=O)[C@H](O)C3=C(C)[C@@H](OC(=O)[C@H](O)[C@@H](NC(=O)OC(C)(C)C)c4ccccc4)C[C@@](O)([C@@H](OC(=O)c4ccccc4)[C@H]21)C3(C)C [Taxotere]
- inhibition of / interaction with p-glycoprotein (p-glycoprotein): p-glycoprotein inhibitors

Compound: CCN1CCN(C(=O)N[C@@H](C(=O)N[C@@H]2C(=O)N3C(C(=O)O)=C(CSc4nnnn4C)CS[C@H]23)c2ccc(O)cc2)C(=O)C1=O [Cefoperazone]
- peak plasma concentration ([1]; human, in vivo, im): 80 to 120 µg/mL
- peak plasma concentration ([1]; human, in vivo, iv): 250 to 357 µg/mL
- biliary secretion ([1]; human, in vivo): 70%
- urinary excretion ([1]; human, in vivo): 30%
- oral absorption ([1]; oral): absorbed poorly

Compound: CN(C)CCCN1c2ccccc2Sc2ccc(Cl)cc21 [Chlorpromazine hydrochloride, 10H-Phenothiazine-10-propanamine, 2-chloro-N,N-dimethyl-, mono hydrochloride]
- volume of distribution ([1]; human, in vivo, im): 21.8 L/kg
- bioavailability / dose reaching the systemic circulation ([1]; human, in vivo, po): 32%
- volume of distribution ([1]; human, in vivo, po): 80.6 L/kg

Compound: O=C1NC(=O)C(c2ccccc2)(c2ccccc2)N1 [Phenytoin, 2,4-Imidazolidinedione, 5,5-diphenyl-]
- lethal plasma levels ([1]; human, in vivo): ~100 µg/mL

Compound: CCC1(c2ccccc2)C(=O)NC(=O)NC1=O [Phenobarbital, 2,4,6(1H,3H,5H)-Pyrimidinetrione, 5-ethyl-5-phenyl-]
- oral absorption ([1]; % of oral dose): Approximately 80%
- therapeutic plasma levels ([1]; human, in vivo): 10 to 30 µg/mL
- time to peak plasma level ([1]; human, plasma): 16 to 18 h

Compound: CCN(CC)CCCC(C)Nc1ccnc2cc(Cl)ccc12 (stereo not drawn) [Chloroquine phosphate, 1,4-Pentanediamine, N^4-(7-chloro-4-quinolinyl)-N^1, N^1-diethyl-, phosphate (1:2)]
- oral absorption ([1]; oral): absorbed almost completely

Compound: CCOC(=O)N(C)[C@@H]1C[C@H]2O[C@@](C)([C@@H]1OC)n1c3ccccc3c3c4c(c5c6ccccc6n2c5c31)C(=O)NC4=O [NA-382, N-ethoxycarbonyl-7-oxo-staurosporine]
- inhibition of / interaction with p-glycoprotein (p-glycoprotein): inhibiting drug binding to p-glycoprotein

Compound: CC(=O)[C@H]1CC[C@H]2[C@@H]3CC=C4C[C@@H](O)CC[C@]4(C)[C@H]3CC[C@]12C [pregnenolone]
- inhibition of / interaction with p-glycoprotein (p-glycoprotein): inhibited the transporting activity of p-glycoprotein

Compound: CS(=O)(=O)O.C[C@]12C=CC(=O)C=C1CC[C@@H]1C2=CC[C@]2(C)[C@@H](C(=O)CN3CCN(c4cc(N5CCCC5)nc(N5CCCC5)n4)CC3)CC[C@@H]12 [U-74389F]
- inhibition of / interaction with p-glycoprotein (p-glycoprotein): potent inhibitors

Compound: COc1ccc(CCN(C)CCCC(C#N)(c2ccc(OC)c(OC)c2)C(C)C)cc1OC (stereo not drawn) [Verapamil hydrochloride, benzeneacetonitrile, α-[3-[[2-(3,4-dimethoxyphenyl)ethyl]-methylamino]propyl]-3,4-dime thoxy-a-(l-methylethyl)-, hydrochloride]
- excreted unchanged (urine) ([1]; % of dose): less than 5%
- fecal excretion ([1]; % of dose): 16%
- oral absorption ([1]; % of oral dose): more than 90%

Compound: O=C1CN=C(c2ccccc2Cl)c2cc([N+](=O)[O-])ccc2N1 [Clonazepam, 2H-1,4-Benzodiazepin-2-one, 5-(2-chlorophenyl)-1,3-dihydro-7-nitro-]
- therapeutic plasma levels ([1]; human, in vivo): 0.02 to 0.08 µg/mL

Compound: CO[C@H]1/C=C/O[C@@]2(C)Oc3c(C)c(O)c4c(O)c(c(/C=N/N5CCN(C)CC5)c(O)c4c3C2=O)NC(=O)/C(C)=C\C=C\[C@H](C)[C@H](O)[C@@H](C)[C@@H](O)[C@@H](C)[C@H](OC(C)=O)[C@@H]1C [Rifampin, Rifamycin, 3-[[(4-methyl-1-piperazinyl)imino]methyl]-]
- duration of effective levels ([1]; human, in vivo): 8 to 10 h

Compound: COc1cccc2c1C(=O)c1c(O)c3c(c(O)c1C2=O)C[C@@](O)(C(C)O)C[C@@H]3O[C@H]1C[C@H](N)[C@H](O)[C@H](C)O1 (stereo partly drawn) [daunorubicinol]
- half-life ([1]; plasma/serum/terminal or elimination half-life): about 27 hr
